Test results published in patent US12691112B2, “FGFR tyrosine kinase inhibitors for the treatment of urothelial carcinoma” (Janssen Pharmaceutica NV, priority 2019, dated 2026).
“And” between values parts separate entries of the source, which are not always exact repeats. Equal values may be shown once. Read-outs that look alike come from different tables or passages of the source.

Tested on: metastatic or surgically unresectable urothelial cancer harboring select FGFR genetic alterations
Details: for Disease control rate (CR + PR + SD) / Inevaluable / Objective response rate (CR + PR) / Progressive disease (PD) / Confirmed complete response (CR) / Confirmed partial response (PR) / 6-month progression-free survival rate (95% CI), among responders / 9-month progression-free survival rate (95% CI), among responders / 12-month progression-free survival rate (95% CI), among responders: chemo relapsed/refractory
Excerpt: The study comprises a Screening Phase (molecular screening at any time prior to first dose and study screening within 30 days of first dose), a treatment phase, and a post-treatment follow-up phase. The treatment phase comprises the period from first dose until the end-of-treatment visit. The follow-up phase extends until the subject has died, withdraws consent, is lost to follow-up, or the end of study, whichever comes first.
Included patients were adults with measurable urothelial cancer per Response Evaluation Criteria in Solid Tumors version 1.1.
Patients were required to have at least 1 FGFR2/FGFR3 mutation or fusion per central lab testing of RNA from formalin-fixed, paraffin-embedded tumor samples, using a custom reverse transcriptase polymerase chain reaction assay.
Patients were contacted every 12 weeks for survival assessment.
The study was designed to enroll 180 patients with specified FGFR alterations. Of these, ≥88 were required in the selected regimen. […] Responses were assessed by investigators and an independent radiological review committee. Progression-free survival and overall survival were estimated using Kaplan-Meier product limit method. Data from patients who were progression free and alive or with unknown status were censored at last tumor assessment. Efficacy end points were analysed at primary analysis cut-off.

[1] = 10 mg 7 on/7 off, Mutation and fusion: FGFR3-S249C/FGFR3-Y373C/FGFR2-CASP7/FGFR3-BAIAP2L1/FGFR3-TACC3 V1/FGFR3-TACC3 V3, n=1
[2] = 10 mg 7 on/7 off, Mutation: FGFR3-G370C/FGFR3-S249C, n=1
[3] = 10 mg 7 on/7 off, Mutation: FGFR3-R248C/FGFR3-Y373C, n=1
[4] = 10 mg 7 on/7 off, Mutation: FGFR3-S249C/FGFR3-Y373C, n=1
[5] = Regimen 1, 10 mg intermittent (n=33)
[6] = Regimen 2, 6 mg continuous (n=78)
[7] = Regimen 3, 8 mg continuous (n=99)
[8] = Total (all 3 regimens), Any FGFR alterations, n=189
[9] = Total (all 3 regimens), FGFR fusions (excluding mutations), 6 responders
[10] = Total (all 3 regimens), FGFR fusions (excluding mutations), n=35
[11] = Total (all 3 regimens), FGFR mutations (excluding fusions), 58 responders
[12] = Total (all 3 regimens), FGFR mutations (excluding fusions), n=147
[13] = Total (all 3 regimens), FGFR mutations and fusions, 4 responders
[14] = Total (all 3 regimens), FGFR mutations and fusions, n=7
[15] = Total (all 3 regimens), Fusion: FGFR2-CASP7/FGFR3-BAIAP2L1, n=1
[16] = Total (all 3 regimens), Fusion: FGFR2-CASP7/FGFR3-TACC3 V3, n=1
[17] = Total (all 3 regimens), Mutation and fusion: FGFR3-G370C/FGFR2-BICC1, n=1
[18] = Total (all 3 regimens), Mutation and fusion: FGFR3-G370C/FGFR3-TACC3 V1, n=1
[19] = Total (all 3 regimens), Mutation and fusion: FGFR3-R248C/FGFR3-S249C/FGFR3-TACC3 V1, n=1
[20] = Total (all 3 regimens), Mutation and fusion: FGFR3-R248C/FGFR3-TACC3 V1, n=2
[21] = Total (all 3 regimens), Mutation and fusion: FGFR3-S249C/FGFR3-BAIAP2L1, n=1
[22] = Total (all 3 regimens), Mutation and fusion: FGFR3-S249C/FGFR3-Y373C/FGFR2-CASP7/FGFR3-BAIAP2L1/FGFR3-TACC3 V1/FGFR3-TACC3 V3, n=1
[23] = Total (all 3 regimens), Mutation: FGFR3-G370C/FGFR3-S249C, n=2
[24] = Total (all 3 regimens), Mutation: FGFR3-R248C/FGFR3-Y373C, n=2
[25] = Total (all 3 regimens), Mutation: FGFR3-S249C/FGFR3-Y373C, n=1

Compound: COc1cc(OC)cc(N(CCNC(C)C)c2ccc3ncc(-c4cnn(C)c4)nc3c2)c1 [erdafitinib, N-(3,5-dimethoxy-phenyl)-N′-(1-methylethyl)-N-[3-(1-methyl-1H-pyrazol-4-yl)quinoxalin-6-yl]ethane-1,2-diamine]
- Disease control rate (CR + PR + SD) [1]: 1 (100.0%)
- Inevaluable [1]: 0%
- Objective response rate (CR + PR) [1]: 0%
- Progressive disease (PD) [1]: 0%
- Confirmed complete response (CR) [2]: 0%
- Confirmed partial response (PR) [2]: 1 (100.0%)
- Disease control rate (CR + PR + SD) [2]: 1 (100.0%)
- Inevaluable [2]: 0%
- Objective response rate (CR + PR) [2]: 1 (100.0%)
- Progressive disease (PD) [2]: 0%
- Confirmed complete response (CR) [3]: 0%
- Confirmed partial response (PR) [3]: 1 (100.0%)
- Disease control rate (CR + PR + SD) [3]: 1 (100.0%)
- Inevaluable [3]: 0%
- Objective response rate (CR + PR) [3]: 1 (100.0%)
- Progressive disease (PD) [3]: 0%
- Confirmed complete response (CR) [4]: 0%
- Confirmed partial response (PR) [4]: 0%
- Disease control rate (CR + PR + SD) [4]: 1 (100.0%)
- Inevaluable [4]: 0%
- Objective response rate (CR + PR) [4]: 0%
- Progressive disease (PD) [4]: 0%
- Complete response per investigator assessment [5]: 1 (3) %
- Not evaluable or unknown per investigator assessment [5]: 2 (6) %
- Objective response rate per investigator assessment [5]: 7 (21) %
- Partial response per investigator assessment [5]: 6 (18) %
- Progressive disease per investigator assessment [5]: 6 (18) %
- Stable disease per investigator assessment [5]: 18 (55) %
- Objective response rate per investigator assessment (Regimen 1, 10 mg intermittent, liver metastases): 3/11 (27) %
- Complete response per investigator assessment [6]: 3 (4) %
- Not evaluable or unknown per investigator assessment [6]: 5(6) %
- Objective response rate per investigator assessment [6]: 27 (35) %
- Partial response per investigator assessment [6]: 24 (31) %
- Progressive disease per investigator assessment [6]: 16 (21) %
- Objective response rate per investigator assessment (Regimen 2, 6 mg continuous, bone metastases): 6/15 (40) %
- Not evaluable or unknown per investigator assessment [7]: 2 (2.0) %
- Objective response rate per investigator assessment [7]: 40.4% and 40% and 40 (40.4) %
- Partial response per investigator assessment [7]: 37 (37.4) %
- Progressive disease per investigator assessment [7]: 18 (18.2) %
- Stable disease per investigator assessment [7]: 39% and 39 (39.4) %
- Objective response rate per investigator assessment (Regimen 3, 8 mg continuous, with FGFR3 mutations (n=74)): 48.6% and 36/74 (48.6) %
- Median DoR (95% CI), investigator assessment (Regimen 3, chemotherapy-refractory patients, N = 87): 5.55 (4.21, 7.00) months
- Confirmed complete response (CR) [8]: 7 (3.7%)
- Confirmed partial response (PR) [8]: 61 (32.3%)
- Disease control rate (CR + PR + SD) [8]: 147 (77.8%)
- Inevaluable [8]: 8 (4.2%)
- Objective response rate (CR + PR) [8]: 68 (36.0%)
- Progressive disease (PD) [8]: 34 (18.0%)
- 6-month progression-free survival rate (95% CI), among responders [9]: 0.50 (0.11, 0.80)
- 9-month progression-free survival rate (95% CI), among responders [9]: 0.50 (0.11, 0.80)
- 12-month progression-free survival rate (95% CI), among responders [9]: 0.50 (0.11, 0.80)
- Confirmed complete response (CR) [10]: 0%
- Confirmed partial response (PR) [10]: 6 (17.1%)
- Disease control rate (CR + PR + SD) [10]: 25 (71.4%)
- Inevaluable [10]: 2 (5.7%)
- Objective response rate (CR + PR) [10]: 6 (17.1%)
- Progressive disease (PD) [10]: 8 (22.9%)
- 6-month progression-free survival rate (95% CI), among responders [11]: 0.45 (0.32, 0.58)
- 9-month progression-free survival rate (95% CI), among responders [11]: 0.29 (0.17, 0.42)
- 12-month progression-free survival rate (95% CI), among responders [11]: 0.22 (0.12, 0.35)
- Confirmed complete response (CR) [12]: 6 (4.1%)
- Confirmed partial response (PR) [12]: 52 (35.4%)
- Disease control rate (CR + PR + SD) [12]: 117 (79.6%)
- Inevaluable [12]: 5 (3.4%)
- Objective response rate (CR + PR) [12]: 58 (39.5%)
- Progressive disease (PD) [12]: 25 (17.0%)
- 6-month progression-free survival rate (95% CI), among responders [13]: 0.50 (0.06, 0.84)
- 9-month progression-free survival rate (95% CI), among responders [13]: 0.50 (0.06, 0.84)
- 12-month progression-free survival rate (95% CI), among responders [13]: 0.25 (0.01, 0.67)
- Confirmed complete response (CR) [14]: 1 (14.3%)
- Confirmed partial response (PR) [14]: 3 (42.9%)
- Disease control rate (CR + PR + SD) [14]: 5 (71.4%)
- Inevaluable [14]: 1 (14.3%)
- Objective response rate (CR + PR) [14]: 4 (57.1%)
- Progressive disease (PD) [14]: 1 (14.3%)
- Confirmed complete response (CR) [15]: 0%
- Confirmed partial response (PR) [15]: 0%
- Disease control rate (CR + PR + SD) [15]: 1 (100.0%)
- Inevaluable [15]: 0%
- Objective response rate (CR + PR) [15]: 0%
- Progressive disease (PD) [15]: 0%
- Confirmed complete response (CR) [16]: 0%
- Confirmed partial response (PR) [16]: 0%
- Disease control rate (CR + PR + SD) [16]: 0%
- Inevaluable [16]: 1 (100.0%)
- Objective response rate (CR + PR) [16]: 0%
- Progressive disease (PD) [16]: 0%
- Confirmed complete response (CR) [17]: 1 (100.0%)
- Confirmed partial response (PR) [17]: 0%
- Disease control rate (CR + PR + SD) [17]: 1 (100.0%)
- Inevaluable [17]: 0%
- Objective response rate (CR + PR) [17]: 1 (100.0%)
- Progressive disease (PD) [17]: 0%
- Confirmed complete response (CR) [18]: 0%
- Confirmed partial response (PR) [18]: 1 (100.0%)
- Disease control rate (CR + PR + SD) [18]: 1 (100.0%)
- Inevaluable [18]: 0%
- Objective response rate (CR + PR) [18]: 1 (100.0%)
- Progressive disease (PD) [18]: 0%
- Confirmed complete response (CR) [19]: 0%
- Confirmed partial response (PR) [19]: 1 (100.0%)
- Disease control rate (CR + PR + SD) [19]: 1 (100.0%)
- Inevaluable [19]: 0%
- Objective response rate (CR + PR) [19]: 1 (100.0%)
- Progressive disease (PD) [19]: 0%
- Confirmed complete response (CR) [20]: 0%
- Confirmed partial response (PR) [20]: 1 (50.0%)
- Disease control rate (CR + PR + SD) [20]: 1 (50.0%)
- Inevaluable [20]: 1 (50.0%)
- Objective response rate (CR + PR) [20]: 1 (50.0%)
- Progressive disease (PD) [20]: 0%
- Confirmed complete response (CR) [21]: 0%
- Confirmed partial response (PR) [21]: 0%
- Disease control rate (CR + PR + SD) [21]: 0%
- Inevaluable [21]: 0%
- Objective response rate (CR + PR) [21]: 0%
- Progressive disease (PD) [21]: 1 (100.0%)
- Confirmed complete response (CR) [22]: 0%
- Confirmed partial response (PR) [22]: 0%
- Disease control rate (CR + PR + SD) [22]: 1 (100.0%)
- Inevaluable [22]: 0%
- Objective response rate (CR + PR) [22]: 0%
- Progressive disease (PD) [22]: 0%
- Confirmed complete response (CR) [23]: 0%
- Confirmed partial response (PR) [23]: 1 (50.0%)
- Disease control rate (CR + PR + SD) [23]: 2 (100.0%)
- Inevaluable [23]: 0%
- Objective response rate (CR + PR) [23]: 1 (50.0%)
- Progressive disease (PD) [23]: 0%
- Confirmed complete response (CR) [24]: 0%
- Confirmed partial response (PR) [24]: 2 (100.0%)
- Disease control rate (CR + PR + SD) [24]: 2 (100.0%)
- Inevaluable [24]: 0%
- Objective response rate (CR + PR) [24]: 2 (100.0%)
- Progressive disease (PD) [24]: 0%
- Confirmed complete response (CR) [25]: 0%
- Confirmed partial response (PR) [25]: 0%
- Disease control rate (CR + PR + SD) [25]: 1 (100.0%)
- Inevaluable [25]: 0%
- Objective response rate (CR + PR) [25]: 0%
- Progressive disease (PD) [25]: 0%
